Assays:
[1] = biological target: pEGFR in H1975 cells (Homo sapiens (Human), UniProt P00533, L858R/T790M); conditions: 500 nM for 1 hr, washout up to 24 hr, FIG. 3
[2] = biological target: EGFR delE746-A750 mutation (HCC827 cells) (Homo sapiens (Human), UniProt P00533, DEL746-750); experiment: EGFR signaling immunoblot in HCC827 cells; type: cell-based; conditions: for Ratio WT/mutant: signaling EC50, WT EGFR (A431) vs HCC827
Description: (§1) A431 human epidermoid carcinoma, H1975 human NSCLC and HCC827 human NSCLC adenocarcinoma cells were obtained from the American Type Culture Center (Manassas, Va.). A431 cells were grown in DMEM (Invitrogen, Carlsbad, Calif.) supplemented with 10% FBS (HyClone, South Logan, Utah) and 1% Penicillin-Streptomycin (P/S, Lonza, Walkersville, Md.).
(§2) All primary antibodies were obtained from Cell Signaling (Danvers, Mass.) and used at 1:1000. Secondary antibodies were used at 1:10,000. Goat anti-mouse IgG IRDye 800CW antibody was obtained from LiCor Biosciences (Lincoln, Nebr.) and goat anti-rabbit IgG Alexa Fluor 680 was obtained from Invitrogen.
(§3) Cells were grown in 12-well plates (Corning, Coring, N.Y.) to 90% confluence and then incubated in low-serum (0.1% FBS) media for 16-18 hr. […] A431 cells were then stimulated with 50 ng/ml EGF (Peprotech, Rocky Hill, N.J.) for 15 min. After treatment, cell monolayers were washed with cold PBS (Invitrogen) and immediately lysed by scrapping into 60 uL cold Cell Extraction Buffer (Invitrogen) supplemented with Complete Protease inhibitors (Roche, Indianapolis, Ind.) and PhosphoSTOP (Roche) phosphatase inhibitors.
(§4) Phospho-protein signals were quantitated using Odyssey Infrared Imaging (Li-Cor Biosciences).
(§5) Blots were normalized as indicated above. […] Normalized data was fitted using a sigmoidal curve analysis program (Graph Pad Prism version 5) with variable Hill slope to determine the EC50 values.

[3] = biological target: T1, EGFR T790M/L858R (Homo sapiens (Human), UniProt P00533, L858R/T790M); experiment: Omnia assay, EGFR (T790M/L858R) active enzyme; type: biochemical; conditions: for Ratio WT/mutant: biochemical IC50, WT EGFR vs EGFR (T790M/L858R); for IC50: [EGFR-T790M/L858R]=2.5 nM, [ATP]=20 uM, 30 min pre-incubation
Description: (§7) Kinase reactions were started with the addition of 45 μL of the ATP/Tyr-Sox peptide substrate mix and monitored every 71 seconds for 60 minutes at λex360/λem485 in a Synergy^4 plate reader from BioTek (Winooski, Vt.).

[4] = biological target: T1, EGFR T790M/L858R; conditions: for covalent modification of the protein: intact protein MS, I-1 within 30 minutes
[5] = biological target: EGFR double mutation L858R/T790M (H1975 cells) (Homo sapiens (Human), UniProt P00533, L858R/T790M); experiment: EGFR signaling immunoblot (phospho-EGFR, phospho-S6) in H1975 cells; type: cell-based; conditions: for Ratio WT/mutant: signaling EC50, WT EGFR (A431) vs H1975
Description: as §1, §2, §3, §4, §5

[6] = tested on: HCC827 cells (EGFR delE746-A750); experiment: Cell proliferation (CellTiter Glo), HCC827 cells; type: cell-based, human; conditions: GI50, WT EGFR (A431) vs HCC827
Description: as §1
(§6) Growth inhibition (GI50) values were determined by Graph Pad Prism.

[7] = tested on: H1975 cells (EGFR L858R/T790M); experiment: Cell proliferation (CellTiter Glo), H1975 cells; type: cell-based, human; conditions: GI50, WT EGFR (A431) vs H1975
Description: as §1, §6

[8] = biological target: WT EGFR (A431 cells) (Homo sapiens (Human), UniProt P00533); experiment: EGFR signaling immunoblot (phospho-EGFR, phospho-S6) in A431 cells; type: cell-based; conditions: FIG. 2
Description: as §1, §2, §3, §4
Blots were normalized as indicated above. […]

[9] = biological target: EGFR-WT (Homo sapiens (Human), UniProt P00533); experiment: Omnia assay, EGFR (WT) active enzyme; type: biochemical; conditions: [EGFR-WT]=5 nM, [ATP]=15 uM, 30 min pre-incubation
Description: as §7

[10] = 10-fold excess of compound, MALDI, FIG. 4

| SMILES | Ratio WT/mutant [3] | Ratio WT/mutant [5] | further results |
| --- | --- | --- | --- |
| C=CC(=O)Nc1cccc(Nc2nc(Nc3ccccc3OC)ncc2C(F)(F)F)c1 [Compound I-1, N-(3-(2-(2-methoxyphenylamino)-5-(trifluoromethyl)pyrimidin-4-ylamino)phenyl)acrylamide] | >50 | >50 | duration of action after washout (pEGFR) [1]: prolonged duration of action; Ratio WT/mutant [2]: >50; mass shift [4, 10]: 488 Da; mass shift relative to compound mass [4, 10]: 113%; covalent modification of the protein [4]: completely modifies |
| C=CC(=O)Nc1cccc(Oc2nc(Nc3ccccc3OC)ncc2C(F)(F)F)c1 [Compound I-2, N-(3-(2-(2-methoxyphenylamino)-5-(trifluoromethyl)pyrimidin-4-yloxy)phenyl)acrylamide] | – | – | duration of action after washout (pEGFR) [1]: prolonged duration of action; covalent modification of the protein [4]: covalently modify the protein |
| C=CC(=O)Nc1cccc(Nc2nc(Nc3ccc(OC)c(OC)c3OC)ncc2Br)c1 [Compound I-5, N-(3-(5-bromo-2-(2,3,4-trimethoxyphenylamino)pyrimidin-4-ylamino)phenyl)acrylamide] | >45 | >50 | – |
| C=CC(=O)Nc1cccc(Oc2nc(Nc3cccc(OC)c3OC)ncc2Br)c1 [Compound I-6, N-(3-(5-bromo-2-(2,3-dimethoxyphenylamino)pyrimidin-4-yloxy)phenyl)acrylamide] | >45 | – | – |
| C=CC(=O)Nc1cccc(Oc2nc(Nc3ccc(OC)c(OC)c3OC)ncc2Cl)c1 [Compound I-7, N-(3-(5-chloro-2-(2,3,4-trimethoxyphenylamino)pyrimidin-4-yloxy)phenyl)acrylamide] | >25 | >50 | Ratio WT/mutant [6]: >15; Ratio WT/mutant [7]: >10; covalent modification of the protein [4]: covalently modify the protein; inhibition of pEGFR and downstream S6 ribosomal protein ([5]; H1975 cells, FIG. 1 and FIG. 2): inhibiting pEGFR and its downstream target S6 Ribosomal protein; WT-EGFR sparing [8]: completely WT-EGFR sparing |
| C=CC(=O)Nc1cccc(Oc2nc(Nc3ccc(OC)c(OC)c3OC)ncc2C(F)(F)F)c1 [Compound I-10, N-(3-(5-(trifluoromethyl)-2-(2,3,4-trimethoxyphenylamino)pyrimidin-4-yloxy)phenyl)acrylamide] | >50 | >50 | – |
| C=CC(=O)Nc1cccc(Nc2nc(Nc3ccc(OC)c(OC)c3OC)ncc2C(F)(F)F)c1 [Compound I-11, N-(3-(5-(trifluoromethyl)-2-(2,3,4-trimethoxyphenylamino)pyrimidin-4-ylamino)phenyl)acrylamide] | >25 | >50 | Ratio WT/mutant [2]: >5 |
| C=CC(=O)Nc1cccc(Nc2nc(Nc3cccc(OC)c3OC)ncc2Br)c1 [Compound I-14, N-(3-(5-bromo-2-(2,3-dimethoxyphenylamino)pyrimidin-4-ylamino)phenyl)acrylamide] | >50 | – | IC50 [3]: 1 to 10 nM; IC50 [9]: 300 to 1000 nM |
| C=CC(=O)Nc1cccc(Oc2nc(Nc3cccc(OC)c3OC)ncc2Cl)c1 [Compound I-17, N-(3-(5-chloro-2-(2,3-dimethoxyphenylamino)pyrimidin-4-yloxy)phenyl)acrylamide] | >35 | – | EC50 ([2]; HCC827 cells, signaling, 1 hr): 500 to 1000 nM; IC50 [3]: 10 to 100 nM; IC50 [9]: 300 to 1000 nM |
| C=CC(=O)Nc1cccc(Nc2nc(Nc3ccccc3OC)ncc2Cl)c1 [Compound I-18, N-(3-(5-chloro-2-(2-methoxyphenylamino)pyrimidin-4-ylamino)phenyl)acrylamide] | >30 | – | – |
| C=CC(=O)Nc1cccc(Oc2nc(Nc3ccccc3OC)ncc2F)c1 [Compound I-19, N-(3-(5-fluoro-2-(2-methoxyphenylamino)pyrimidin-4-yloxy)phenyl)acrylamide] | >10 | – | – |
| C=CC(=O)Nc1cccc(Nc2nc(Nc3ccc(OC)cc3OC)ncc2Br)c1 [Compound I-20, N-(3-(5-bromo-2-(2,4-dimethoxyphenylamino)pyrimidin-4-ylamino)phenyl)acrylamide] | >45 | – | – |
| C=CC(=O)Nc1cccc(Nc2nc(Nc3ccc(OC)cc3OC)ncc2Cl)c1 [Compound I-21, N-(3-(5-chloro-2-(2,4-dimethoxyphenylamino)pyrimidin-4-ylamino)phenyl)acrylamide] | >50 | >5 | – |

Source: US9765038B2, “Heteroaryl compounds and uses thereof” (Celgene CAR LLC, priority 2010, dated 2017)
